According to PMC11943913, “Peptides from Harpadon nehereus Bone Ameliorate Sodium Palmitate-Induced HepG2 Lipotoxicity by Regulating Oxidative Stress and Lipid Metabolism” (Marine Drugs, 2025):
“Also recorded” adds a separate entry of the source. Values belong to the compound of their own block, whether it stands above or below them.

Experiments:
HepG2 cells [1] = assay: CCK-8 proliferation of HepG2 with PANa; assay type: cell-based; settings: 1000 μM PANa, 24 h, CCK-8, p < 0.0001, 100% at 0 μM PANa
Protocol: After incubation, different concentrations (250, 500, 750, 1000 μmol/L) of PANa were added and treated for 24 h. The cell proliferation rates were measured according to the CCK-8 assay instructions.

HepG2 cells [2] = assay: Observation of cell morphology; assay type: cell-based; settings: 350 µM PANa 24 h, inverted microscope, 200×
Protocol: Cells grown in culture flasks underwent digestion to create a single-cell suspension that was then diluted with fresh medium before being transferred into six-well plates at a final concentration of 4 × 10^5/well (2 mL/well). Peptides at concentrations of 100 μM were introduced prior to adding PANa for a 4 h incubation. Following another 24 h culture period, cells were examined and photographed using an inverted microscope.

catalase (CAT) = assay: Catalase (CAT) activity in HepG2; assay type: cell-based
Protocol: (§1) After incubation, cells were treated with 100 μM of peptides for 4 h. After removing the media, PANa was added for 24 h of incubation. The levels of catalase (CAT), superoxide dismutase (SOD), glutathione peroxidase (GSH-Px), malondialdehyde (MDA), triacylglycerol (TG), total cholesterol (TCHO), low-density lipoprotein cholesterol (LDL-C), and high-density lipoprotein cholesterol (HDL-C) in the supernatant were determined according to the kit instructions.

[3] = test system: glutathione peroxidase (GSH-Px); assay: Glutathione peroxidase (GSH-Px) activity in HepG2; assay type: cell-based
Protocol: as §1

malondialdehyde (MDA) = assay: Malondialdehyde (MDA) level in HepG2; assay type: cell-based
Protocol: as §1

Nrf2 = assay: Western blot Nrf2; assay type: cell-based; settings: HepG2, Western blot
Protocol: (§2) After treatment, cells were washed with pre-chilled PBS and lysed with ice-cold lysis buffer for 30 min. The supernatant was collected after centrifugation at 12,000× g for 10 min and stored at −80 °C. Protein concentration was determined using a BCA protein assay kit. Equal amounts of protein (20–40 µg) were subjected to 10% sodium dodecyl sulfate-polyacrylamide gel electrophoresis (SDS-PAGE) and transferred to PVDF membranes (Polyvinylidene Fluoride, Merck, Darmstadt, Germany). Non-specific binding sites were blocked with 5% bovine serum albumin (BSA) solution at room temperature for 1 h, followed by incubation with the primary antibody at 4 °C overnight. After washing with TBST (3 times, 10 min/time), the membrane was incubated with the secondary antibody at room temperature for 1 h. Following further washing with TBST (3 times, 10 min/time), antibody signals were detected using a Western blot development system. The dilution ratios for the internal reference protein, vascular endothelial injury-related proteins, and oxidative stress-related pathway proteins were prepared according to the manufacturer’s instructions.

HO-1 = assay: Western blot HO-1; assay type: cell-based; settings: HepG2, Western blot
Protocol: as §2

NQO1 = assay: Western blot NQO1; assay type: cell-based; settings: HepG2, Western blot
Protocol: as §2

HepG2 cells [4] = assay: Oil Red O staining (fat accumulation); assay type: cell-based; settings: 200×
Protocol: After incubation, the supernatants were discarded, and 2 mL of Oil Red O stationary solution was added to each well for 20–30 min. The stationary solution was subsequently washed away with 60% isopropyl alcohol. A freshly prepared Oil Red O staining solution was then applied for immersion dyeing lasting 10–20 min. After removing the staining solution with water, a Mayer hematoxylin staining solution was added for counterstaining the nucleus for 1–2 min before being discarded. An Oil Red O buffer solution was applied for 1 min and then discarded. […] The emission wavelength of fluorescence detection was 600 nm.

triacylglycerol (TG) = assay: Triacylglycerol (TG) level in HepG2; assay type: cell-based
Protocol: as §1

total cholesterol (TCHO) = assay: Total cholesterol (TCHO) level in HepG2; assay type: cell-based
Protocol: as §1

[5] = test system: low-density lipoprotein cholesterol (LDL-C); assay: LDL-C level in HepG2; assay type: cell-based
Protocol: as §1

[6] = test system: high-density lipoprotein cholesterol (HDL-C); assay: HDL-C level in HepG2; assay type: cell-based
Protocol: as §1

[7] = test system: fatty acid synthase (FASN); assay: Western blot FASN; assay type: cell-based; settings: HepG2, Western blot
Protocol: as §2

[8] = test system: phosphorylated ACC1 (p-ACC1); assay: Western blot p-ACC1; assay type: cell-based; settings: HepG2, Western blot
Protocol: as §2

[9] = test system: Carnitine palmitoyl transferase 1 (CPT1); assay: Western blot CPT1; assay type: cell-based; settings: HepG2, Western blot
Protocol: as §2

[10] = test system: adipose triglyceride lipase (ATGL); assay: Western blot ATGL; assay type: cell-based; settings: HepG2, Western blot
Protocol: as §2

p-AMPKα = assay: Western blot p-AMPKα; assay type: cell-based; settings: 350 µM PANa 24 h, HepG2, Western blot
Protocol: as §2

HepG2 cells [11] = assay: CCK-8 proliferation of HepG2 with peptide alone; assay type: cell-based; settings: concentrations below 200 µM, 24 h, CCK-8, n = 3
Protocol: HepG2 cells were cultured in DMEM supplemented with penicillin at a concentration of 100 U/mL, streptomycin at 100 μg/mL, and fetal bovine serum at a volume ratio of 10% under conditions of 37 °C and 5% CO2. A total of 2 ×10^4 cells per well were seeded into a 96-well plate for overnight culture. The upper layer of medium was carefully aspirated, and 200 μL of different concentrations of oligopeptide solution (50 μM, 100 μM, 200 μM) prepared with cell complete medium was added to each well. Twenty-four hours later, the proliferation rate of the cells was measured according to the instructions of the CCK-8 kit, and the appropriate concentration of oligopeptide was screened out.

HepG2 cells [12] = assay: Cell viability of PANa-induced HepG2 (CCK-8); assay type: cell-based; settings: 100 μM peptide 4 h, then 350 µM PANa 24 h, **** p < 0.0001 vs PANa group
Protocol: A total of 2 × 10^4 cells/well were inoculated in 96-well plates for culture at 37 °C and 5% CO2. Following this period, the cells received treatment with 200 μL medium containing 100 μM LR-7, KA-8, or PG-7 for 4 h before adding 350 μM PANa to each well. After incubation for an additional 24 h, the cell proliferation rates were assessed using the CCK-8 assay protocols.

[13] = test system: superoxide dismutase (SOD); assay: Superoxide dismutase (SOD) activity in HepG2; assay type: cell-based; settings: 100 μM peptide 4 h, then 350 µM PANa 24 h
Protocol: as §1

HepG2 = assay: Lipid levels in HepG2 (TG, TCHO, LDL-C, HDL-C) overall; assay type: cell-based; settings: 100 μM peptide 4 h, then 350 µM PANa 24 h
Protocol: as §1

[14] = test system: proteins associated with lipid metabolism; assay: Western blot, proteins associated with lipid metabolism overall; assay type: cell-based; settings: 100 μM peptide 4 h, then 350 µM PANa 24 h, HepG2, Western blot
Protocol: as §2

pancreatic lipase = assay: Pancreatic lipase activity inhibition; assay type: biochemical; settings: compared with orlistat (positive control); 4-nitrophenyl palmitate substrate, lipase 1.2 mg/mL, peptide 100 μM, Tris-HCl pH 8.0, 37 °C, absorbance 405 nm, three parallel wells
Protocol: A working substrate solution consisting of 4-nitrophenyl palmitate dissolved in sodium acetate solution (containing 1% Triton-X 100, 100 mL, 5 mM, pH 5.0) was prepared. Enzyme powder was dissolved in Tris-HCl buffer (pH 8.0, 37 °C). This mixture was incubated at 4 °C for 2 h before centrifugation at 5000 r/min for 5 min, yielding the supernatant used to prepare a pancreatic lipase solution of 1.2 mg/mL. Orlistat at a concentration of 1 mg/mL in Tris-HCl buffer (pH 8.0; 37 °C) was prepared alongside DMSO to reach a concentration of 350 μg/mL peptide solution. The peptide solution of 100 μM was prepared with Tris-HCl buffer (pH = 8.0, 37 °C). The absorbance was measured at 405 nm, and the inhibition rate was measured in parallel with three holes due to the methodology of Franco et al..

hypertensive mice = settings: earlier work, ref [22]; cited from earlier work
Description: Harpadon nehereus, a nutrient-rich marine species indigenous to the Indo-Pacific region, remains underexploited despite its significant collagen content (18–22% wet weight). Harpadon nehereus serves as an economical source that is rich in protein and trace elements. Its proteins and derived peptides offer numerous health benefits including immune enhancement, blood pressure reduction, cardiovascular protection, and inflammation mitigation. In prior research, we successfully isolated three novel peptides LALFVPR (LR-7), KLHDEEVA (KA-8), and PSRILYG (PG-7) from the enzymatic hydrol ...

[15] = 350 µM PANa 24 h, HepG2, p < 0.001
[16] = 350 µM PANa 24 h, HepG2, p < 0.0001
[17] = 100 μM peptide 4 h, then 350 µM PANa 24 h, HepG2
[18] = 100 μM peptide 4 h, then 350 µM PANa 24 h, HepG2, p < 0.0001
[19] = 100 μM peptide 4 h, then 350 µM PANa 24 h
[20] = 100 μM peptide 4 h, then 350 µM PANa 24 h, vs PANa group, p < 0.0001
[21] = 100 μM peptide 4 h, then 350 µM PANa 24 h, vs PANa group

decrease in CAT activity vs Con group (catalase (CAT); [15]): more than 20%
decrease in GSH-Px activity vs Con group [3, 15]: more than 20%
Compound: CCCCCCCCCCCCCCCC(=O)[O-].[Na+] [PANa, Sodium palmitate]
cell viability (HepG2 cells [1]): 33.3%
cell morphology, PANa group (HepG2 cells [2]): appeared loose, with a marked decrease in cell count and showed signs of apoptosis
increase in MDA level vs Con group (malondialdehyde (MDA); [16]): 105%
Nrf2 protein expression, PANa vs Con group (Nrf2; 350 µM PANa 24 h): significant reduction
HO-1 protein expression, PANa vs Con group (HO-1; 350 µM PANa 24 h): significant reduction
NQO1 protein expression, PANa vs Con group (NQO1; 350 µM PANa 24 h): significant reduction
fat droplet formation and accumulation, PANa vs Con group (HepG2 cells [4]; 350 µM PANa 24 h): evident rise in fat droplet formation and accumulation
increase in TG level vs Con group (triacylglycerol (TG); [16]): 124.1%
increase in TCHO level vs Con group (total cholesterol (TCHO); [16]): 48.4%
increase in LDL-C level vs Con group [5, 16]: 58.3%
decrease in HDL-C level vs Con group [6, 15]: 51.7%
FASN expression, PANa vs Con group ([7]; 350 µM PANa 24 h): notable increase in FASN expression
p-ACC1 level, PANa vs Con group ([8]; 350 µM PANa 24 h, p < 0.01): significantly reduced
CPT1 expression, PANa vs Con group ([9]; 350 µM PANa 24 h, p < 0.05): markedly diminished
ATGL expression, PANa vs Con group ([10]; 350 µM PANa 24 h, p < 0.05): markedly diminished
phosphorylation of AMPKα, PANa group (p-AMPKα): attenuate the phosphorylation of AMPKα

CAT activity, reversal of PANa-induced reduction (catalase (CAT); [17]): effectively reversed the reduction
increase in CAT activity vs PANa group (catalase (CAT); [18]): over 100%
SOD activity, reversal of PANa-induced reduction [13]: effectively reversed the reduction
GSH-Px activity, reversal of PANa-induced reduction [3, 17]: effectively reversed the reduction
increase in GSH-Px activity vs PANa group [3, 18]: over 100%
Compound: LALFVPR [LR-7, peptide from Harpadon nehereus bone collagen enzymatic hydrolysates]
effect on apoptosis of HepG2 cells (HepG2 cells [11]): no effect on the apoptosis of HepG2 cells
cell viability of PANa-exposed HepG2 (HepG2 cells [12]): notably enhanced the cell viability
MDA level (malondialdehyde (MDA); [17]): decreased to values similar to those observed in the Con group; also recorded: significantly decreased the MDA levels
Nrf2 protein level (Nrf2; [19]): significant increases in the levels
HO-1 protein level (HO-1; [19]): significant increases in the levels
increase in HO-1 level (HO-1; [20]): 131.7%
NQO1 protein level (NQO1; [19]): significant increases in the levels
increase in NQO1 level (NQO1; [20]): 120%
fat accumulation relative to PANa group (HepG2 cells [4]; [19]): most significant reduction in fat accumulation
TG, effect on PANa-induced increase (triacylglycerol (TG); [17]): notably reversed the PANa-induced increases
TCHO, effect on PANa-induced increase (total cholesterol (TCHO); [17]): notably reversed the PANa-induced increases
LDL-C, effect on PANa-induced increase [5, 17]: notably reversed the PANa-induced increases
HDL-C, effect on PANa-induced decrease [6, 17]: notably reversed
lipid-lowering impact, ranking among the three peptides (HepG2): the most effective lipid-lowering impact
FASN expression vs PANa group [7, 19]: FASN expression decreased
reduction in FASN level [7, 21]: 59.6%
p-ACC1 level vs PANa group [8, 19]: p-ACC1 levels increased significantly
enhancement of p-ACC1 [8, 21]: 293.7%
enhancement of CPT1 level [9, 20]: 134.7%
enhancement of ATGL level [10, 20]: 148.1%
abnormal expression of proteins associated with lipid metabolism by PANa (FASN, ATGL, CPT1, p-AMPKα) [14]: significantly reversed
inhibition of pancreatic lipase activity (pancreatic lipase): superior inhibitory effects compared with orlistat
protection against cardiovascular injuries in hypertensive mice (hypertensive mice): protective qualities against cardiovascular injuries in hypertensive mice
